In patent US20230190660A1, “ENCAPSULATED PHARMACEUTICAL COMPOSITIONS, RELATED METHODS OF MAKING, AND RELATED METHODS OF TREATMENT” (PATH, priority 2021, published 2023):

Assays:
glucose levels [1] = test: Pilot study: glucose levels in rats after oral ion-pair formulations or subQ insulin; type: in vivo; conditions: subQ, 5 IU/kg
Excerpt: (§1) The present Example describes a) selection of the dosage presentation for the lead ion-pair and the dose (see TABLE 8, FIGS. 4 and 14A-14D) and b) validation of the lead ion-pair formulation in their ability to lower glucose levels upon oral administration of the formulations (see FIGS. 15A-15D). In part a) of the present Example, we compared the capsule and FDT presentation formats for both ion-pair formulations. We also included β-CD-encapsulated ion-pair complex to see whether the encapsulation of ion-pair within β-CD offers further improvement in absorption of insulin. Liquid insulin given subcutaneously (subQ) was used a comparator in both studies.

glucose levels [2] = test: Confirmation study: glucose levels in rats, additional doses; type: in vivo; conditions: subQ, 5 IU/kg
Excerpt: as §1

blood glucose levels = test: Glucose lowering in STZ diabetic rodent model; type: in vivo, Sprague Dawley rodents; conditions: SC
Procedure: Briefly, the male Sprague Dawley rodents (200-250 grams) are fasted 4 hours before given 65 mg/kg intraperitoneal (IP) streptozotocin (STZ) to induce diabetes and randomized into treatment groups based on the post-STZ (˜1 week) baseline glucose levels (see TABLE 10). Only rodents with hyperglycemia (glycose levels […]) are used in the study. Rodents are housed on a 12-hour light/dark cycle with no more than 2 rats per cage depending on size and acclimatized for not less than 5 days. Blood glucose levels are measured using calibrated Glucocard Vital glycometers (Arkray, Minneapolis, Minn.) and levels are reported as mg/dL. For each timepoint, blood (<5 uL) is acquired from a tail snip and directly applied to a glucose test strip. Data for each quantitative timepoint is presented as the average+/−SEM (standard error of the mean). Differences between vehicle control and each treatment groups are determined by Student's t-test using GraphPad Prism (current version) with an alpha threshold of 0.05.
Insulin and blood glucose levels were measured before administration, at 30 minutes, 60 minutes, 90 minutes, 2 hours, 4 hours, 8 hours, and 24 hours after dosing.

[3] = Static gastrointestinal use testing (GUT) model, gastric fluid; conditions: 30 minutes at 37° C.
Excerpt: The purpose of this evaluation was to test whether the bile-insulin ion-pair encapsulated within the resistant starch polymer is protected from pH and enzymatic degradation encountered in the gastrointestinal compartments. Since the in vivo feasibility of insulin FDTs is proposed in a diabetic rodent model, we scaled down the size of the FDTs based on limited size of the oral cavity in rats. We also included commercially available gelatin oral capsules fit for oral delivery to rats (FIGS. 12A and 12B). Biorelevant dissolution media simulating the pH and enzymatic conditions in the different sections of gastrointestinal tract, such as fasted state simulated gastric fluid (FASSFG), and intestinal fluid in the duodenum and jejunum (TABLE 7) were generated following the composition recipe reported by Jantratid et al. (2009).
Samples were incubated in the different fluid media maintained at 37° C. and at the 30-minute time point, removed and tested for insulin content. Unformulated insulin was used as a control for comparative evaluation (FIGS. 13A and 13B).

## insulin
Glucose levels [1]; late time point (T=8 hours), similar to T=0
  glucose levels: 600 mg/dL
Glucose levels [1]; within the first hour (from 600 mg/dL)
  glucose level: 100 mg/dL
Glucose levels [1]; within the first hour of administration
  lowering of glucose levels: about 80%
Glucose levels [2]; T=1 hour
  drop in glucose levels: ~80%
Glucose levels [2]; T=1 hour (from 600 mg/dL)
  glucose level: ~100 mg/dL
Blood glucose levels
  time after administration within which glucose levels rise: ≤ 4 h
Blood glucose levels; compared to diabetic rodent levels
  glucose lowering effect: > 60%
[3]
  degradation in the presence of gastric fluid: degraded almost completely
